The text below walks through data of patent publication US9642922B2, “Caspase-triggered nano-aggregation probes and methods of use” (The Board of Trustees of the Leland Stanford Junior …, priority 2013, dated 2017).

Marks after values point to notes of the source that are not given here.

A short description of data set [1]: TEM of nano-aggregates after incubation with caspase-3. In kind it is physicochemical. The note with it: after caspase-3 incubation. The procedure:
FIG. 7C is a digital TEM image of nano-aggregates after incubation C-SNAF (50 μM) with recombinant human caspase-3 (4.9×10^−3 U/mL) overnight at 37° C. in caspase-3 buffer; scale bar, 1 μm.
No nano-aggregation was found in either of the control probe solutions after incubation with caspase-3.

Data set [2] in a line: Stability of PET tracers in mouse serum. In kind it is in vitro ADME. The note with it: 1 h incubation, 37° C. As to the method: To the mouse serum (500 μL) 100 μL (approximately 100 μCi/3.7 MBq) of radioactive sample was added and the mixture was incubated at 37° C. At each time point, 100 μL of sample was taken and after mixing with 100 μL of acetonitrile was centrifuged at 9,400×g for 5 min. The resulting supernatants were collected, and an aliquot of each supernatant (100 μL) was diluted with 100 μL of water and analyzed via the same HPLC method used for quality control (fitted with a highly sensitive positron detector for radioactivity). The percent ratio of intact compound to the total radioactivity on the HPLC chromatogram was calculated as %=[(peak area for intact compound)/(total peak area)]×100.

The target of another data set is T1, caspase-3 (Homo sapiens, UniProt P42574).
T1 sequence (P42574 29-175 limits assumed): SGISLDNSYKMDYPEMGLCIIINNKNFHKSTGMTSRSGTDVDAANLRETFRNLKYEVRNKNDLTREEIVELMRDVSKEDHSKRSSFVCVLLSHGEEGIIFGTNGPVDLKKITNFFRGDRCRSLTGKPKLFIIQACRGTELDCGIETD
T1 sequence (P42574 176-277 limits assumed): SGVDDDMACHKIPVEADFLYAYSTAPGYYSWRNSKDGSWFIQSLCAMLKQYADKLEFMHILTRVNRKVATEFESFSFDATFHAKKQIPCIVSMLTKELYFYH
In words: Incubation of PET tracer with recombinant caspase-3, radio-HPLC. In kind it is biochemical. The conditions noted are these: within 1 h, in buffer. The procedure: To evaluate the activatable PET tracer 1 for caspase-3 detection, it was first incubated with recombinant caspase-3 in buffer.

The next data set has as its system apoptotic HeLa cells. Kind of data set: Cell uptake of tracer 1 in HeLa cells. The data set is classed as cell-based, human. The procedure:
HeLa cells (cultured in DMEM with 10% FBS and 1% ampicillin) were grown in a 6 well plate culture dish for 24 h. The wells were then divided into 3 groups. Group 1 wells were cultured normally for 24 h, then the medium was changed and the cells were cultured for another 24 h. Group 2 and 3 wells were cultured with 2 μM doxorubicin (DOX) for 24 h, then the medium was changed and the cells were cultured for another 24 h, group 2 in normal culture medium without doxorubicin and group 3 in normal culture medium without doxorubicin but together with 50 μM Z-VAD-FMK, a caspase-3 inhibitor.
After 48 h, 10 μCi (0.37 MBq) of 1 were added to all three groups and incubated for additional 4 h. Then the medium was removed, the cells washed 3 times with phosphate buffered saline, and 1 mL of Tryp-LETM Express was added and the cells were left for 1-2 min to allow to detach. The cell/Tryp-LE solution was counted in a gamma counter and the radioactivity was normalized to the protein concentration (determined by comparison with BSA standards in each vial.

The next data set relates to HeLa tumor xenograft. In words: PET imaging of HeLa tumor xenograft-bearing nude mice. The data set is classed as in vivo, mouse. The conditions noted are these: for uptake ratio between tumor and muscle (T/M): treated tumors. The procedure:
One group of animals was scanned at baseline (before treatment) and 4 days post treatment with 0.2 mg doxorubicin injected into the tumor. On the day of scanning, the animals were moved from their housing area to the PET scanner around 1 h prior to the experiment. They were constrained shortly in a tail veiner and injected intravenously, with 440±97 μCi (16±3 MBq) [^18F]C-SNAT formulation. They were anesthetized with 2% isoflurane shortly before placement in an R4 microPET scanner (Siemens Medical Solutions, USA). The anesthesia were continued with 2% isoflurane doing 5 min of acquisition. Scans using the control tracer 1-D (173±73 μCi/9±4 Mbq in 200 μL formulation) were carried out in a similar manner using two groups (one baseline and one treated) instead of the same animals at baseline and after treatment. The images were reconstructed using a standard 2D reconstruction without attenuation correction.
The reconstructed images were analyzed by making two volumes of interest (VOI), one on the tumor and one located on the left shoulder corresponding to muscle/bone mixture. The percent of injected dose per gram tissue (% ID/g) was calculated in each VOI and the ratio between tumor and muscle uptake was calculated based on this uptake (uptake in tumor/uptake in muscle region). The effect of treatment was calculated as the difference in uptake of [^18F]C-SNAT at baseline and after treatment.
Evaluation of activatable PET tracer 1 and control tracer 1-D for PET imaging of caspase-3 activity in vivo was performed in HeLa tumor xenograft-bearing nude mice. Tumors were implanted and grown for a minimum of 10 d before receiving intratumoral injection of 0.2 mg DOX (20 μL). 1 or 1-D (5-15 MBq/135-405 μCi) was injected through the tail vein for PET imaging 4 d post treatment. Static PET scans (5 min) were performed 65, 125 and 182 mins post tracer injection.

Data set [3] is described as follows: Ex vivo biodistribution of [18F]C-SNAT. In kind it is in vivo, mouse. The conditions noted are these: for Ratio of % ID/g over muscle ± SEM: 2 h post injection. The procedure:
Mice were administered [^18F]C-SNAT (100-200 μCi/3.7-7.4 MBq in 100-200 μL of 0.9% saline solution) via tail vein injection and then euthanized by bilateral thoracotomy under anesthesia at 2 h after injection of tracer (n=3). All samples (tumor, heart, whole brain, gallbladder, kidney, liver, lung, muscle, bone, spleen, whole blood) were removed quickly following euthanasia and placed in pre-weighed test tubes. Standard solutions of the tracer were prepared by diluting approximately 100 μCi (3.7 MBq) tracer in 100 mL of water, of which 1 mL of aliquots were used for reference counting.
The test tubes containing tissue samples were weighed and the radioactivity was measured by an automated gamma counter (Cobra Model 5002, Packard, USA) along with the standard solutions.

The subject of the next data set is Membrane Potential. The note with it: cited from earlier work.

Take `CC[N+]1=C(C=CC=CC=C2N(CCCCCC(=O)NCCCCC3NC(=O)C4CSC(=N4)c4ccc5cc(ccc5n4)OCCCNC(=O)C4CSC(=N4)c4nc5ccc(cc5s4)NC3=O)c3ccc4c(S(=O)(=O)O)cc(S(=O)(=O)O)cc4c3C2(C)C)C(C)(C)c2c1ccc1c(S(=O)(=O)[O-])cc(S(=O)(=O)O)cc21` (stereo not shown) [C-SNAF-cycl]: the “average diameter of nano-aggregates (TEM)” value in data set [1] stood at 174±44 nm.
Take `CCSSCC(NC(=O)[C@H](CC(=O)O)NC(=O)[C@@H](NC(=O)[C@H](CCC(=O)O)NC(=O)[C@H](CC(=O)O)NC(C)=O)C(C)C)C(=O)NC(Cc1cn(CCOCC[18F])nn1)C(=O)Nc1ccc2nc(C3=N[C@@H](C(=O)NCCCOc4ccc5nc(C#N)ccc5c4)CS3)sc2c1` (stereo partly shown) [[^18F]C-SNAT]: in data set [2], the “intact tracer in mouse serum” value is recorded as 60%. In addition, at caspase-3, the “tracer cyclized by recombinant caspase-3” value is 90%. Besides, the “retained 18F activity in Dox-treated cells with caspase-3 inhibitor” value in the data set with apoptotic HeLa cells (Dox 2 μM plus Z-VAD-fmk) is given as 1.3 fold. For the same compound, the “retained 18F activity in Dox-treated versus non-treated cells” value with apoptotic HeLa cells (Dox 2 μM, 4 h tracer incubation) was 2.2 fold. For the same compound, the “uptake difference between baseline and treated” value with HeLa tumor xenograft (65 min) amounted to 0.36±0.15 % ID/g; with HeLa tumor xenograft (182 min), 0.63±0.11 % ID/g. In addition, the uptake in tumor was found to be 1.17±0.17 % ID/g with HeLa tumor xenograft (DOX treated, 65 min); 1.29±0.07 % ID/g with HeLa tumor xenograft (DOX treated, 182 min); 0.81±0.28 % ID/g in the data set on HeLa tumor xenograft (baseline, 65 min); 0.67±0.24 % ID/g in the data set on HeLa tumor xenograft (baseline, 182 min). In the data set on HeLa tumor xenograft (maximum value at the apoptotic tissue), this compound had a Target/Background of 7.0. The “time course of uptake in apoptotic tumors” value in the data set on HeLa tumor xenograft (mouse, in vivo) was “trend of increasing uptake over times”. Further, the “% ID/g at target site” value in the data set with HeLa tumor xenograft (mouse, tumor treatment, PET imaging) came to 1.3 ± 0.1 % ID/g. Besides, the Treated/Untreated in the data set with HeLa tumor xenograft (target uptake ratio between pre and post treatment in same animal) is 1.9^b. Besides, the “uptake ratio between tumor and muscle (T/M)” value in the data set with HeLa tumor xenograft (65 min) was 3.30 fold; with HeLa tumor xenograft (182 min) it was 7.00 fold. In addition, the “Ratio of % ID/g over muscle ± SEM” value in data set [3] (Bone) came to 2.4 ± 1.5; in data set [3] (Brain) it was 0.5 ± 0.2; in data set [3] (Heart), 4.5 ± 2.4; in data set [3] (Kidney), 124.2 ± 46.6; in data set [3] (Liver) it was 22.9 ± 9.7; in data set [3] (Lung), 4.1 ± 1.8. For the same compound, the “Ratio of % ID/g over muscle ± SEM” value in data set [3] (Muscle) came to 1.0 ± 0.5; in data set [3] (Plasma), 4.0 ± 1.8; in data set [3] (Spleen), 1.7 ± 0.7; in data set [3] (Tumor), 5.6 ± 2.3; in data set [3] (Whole Blood), 5.1 ± 2.4. Also, the “crossing of the blood-brain barrier” value in data set [3] (low uptake in brain tissue, 120 minutes post injection) is recorded as “could not cross the blood-brain barrier”.
On to `CC(CCCCC[18F])(C(=O)O)C(=O)O` [[^18F]ML-10], for which, in the data set on Membrane Potential (PET imaging, cerebral stroke), the “% ID/g at target site” value is recorded as 0.3 ± 0.1 % ID/g. For the same compound, in the data set with Membrane Potential (stroke and non-stroke region in same animal), the Treated/Untreated is 2.3^f.
